Values of other authors, collected in patent US12597519B2, “Methods for characterizing and treating a cancer type using cancer images” (TESARO, INC., priority 2019, dated 2026).

How the values were obtained:
[1] = test system: cancer cell lines silenced for BRCA-1 or BRCA-2, or carrying BRCA-1 or BRCA-2 mutations; settings: BRCA-defective cells
[2] = test system: platinum-sensitive relapsed ovarian cancer

Row | Structure (SMILES) | mechanism of antiproliferative activity [1] | overall survival benefit ([2]; interim analysis, intent to treat populations) | outcome in subset of patients who had BRCA mutations ([2]; planned analysis, BRCA mutation subset)
1 | Cc1ccc(S(=O)(=O)O)cc1.NC(=O)c1cccc2cn(-c3ccc([C@@H]4CCCNC4)cc3)nc12 [Niraparib, (3S)-3-[4-{7-(aminocarbonyl)-2H-indazol-2-yl}phenyl]piperidine] | cell cycle arrest in G2/M followed by apoptosis |  | 
2 | O=C(c1cc(Cc2n[nH]c(=O)c3ccccc23)ccc1F)N1CCN(C(=O)C2CC2)CC1 [olaparib, 4-[(3-{[4-(cyclopropylcarbonyl)piperazin-1-yl]carbonyl}-4-fluorophenyl)methyl]phthalazin-1(2H)-one] |  | unlikely to translate into an overall survival benefit | clear advantage
